Experimental data as given in US10947196B2, “Beta adrenergic agonist and methods of using the same” (CURASEN THERAPEUTICS, INC., priority 2019, dated 2021).
Where two headings read alike, the source gives them in different places.

Biological target: hERG channel (Homo sapiens (Human), UniProt Q12809)
Assay: hERG manual patch clamp
Format: cell-based
Procedure: Cell lines and cell culture. HEK 293 cell line stably expressing hERG channel (Cat #K1236) was purchased from Invitrogen. The cells are cultured in 85% DMEM, 10% dialyzed FBS, 0.1 mM NEAA, 25 mM HEPES, 100 U/mL Penicillin-Streptomycin and 5 μg/mL Blasticidin and 400 μg/mL Geneticin. Cells were split using TrypLE™ Express about three times a week, and maintained between ˜40% to […] confluence. Before the assay, the cells were transferred onto the coverslips at 5×10^5 cells/per 6 cm cell culture dish and induced with doxycycline at 1 μg/mL for 48 hours.
Solution preparations. Extracellular solution (in mM): 132 NaCl, 4 KCl, 3 CaCl2, 0.5 MgCl2, 11.1 glucose, and 10 HEPES (pH adjusted to 7.35 with NaOH) Intracellular solution (in mM): 140 KCl, 2 MgCl2, 10 EGTA, 10 HEPES and 5 MgATP (pH adjusted to 7.35 with KOH). […]
Experimental procedure. […] The holding potential was set to −90 mV for 500 ms and the current was recorded at 50 kHz and filtered at 10 kHz. […]
The hERG current was elicited by depolarizing at +30 mV for 4.8 seconds and then the voltage was taken back to −50 mV for 5.2 seconds to remove the inactivation and observe the deactivating tail current. […] The current was recorded for 120 seconds to assess the current stability. […]
Data that met the above criteria for hERG current quality were further analyzed. Percent hERG current inhibition was calculated using the following equation. […]

hERG channel, sequence (Q12809 whole entry): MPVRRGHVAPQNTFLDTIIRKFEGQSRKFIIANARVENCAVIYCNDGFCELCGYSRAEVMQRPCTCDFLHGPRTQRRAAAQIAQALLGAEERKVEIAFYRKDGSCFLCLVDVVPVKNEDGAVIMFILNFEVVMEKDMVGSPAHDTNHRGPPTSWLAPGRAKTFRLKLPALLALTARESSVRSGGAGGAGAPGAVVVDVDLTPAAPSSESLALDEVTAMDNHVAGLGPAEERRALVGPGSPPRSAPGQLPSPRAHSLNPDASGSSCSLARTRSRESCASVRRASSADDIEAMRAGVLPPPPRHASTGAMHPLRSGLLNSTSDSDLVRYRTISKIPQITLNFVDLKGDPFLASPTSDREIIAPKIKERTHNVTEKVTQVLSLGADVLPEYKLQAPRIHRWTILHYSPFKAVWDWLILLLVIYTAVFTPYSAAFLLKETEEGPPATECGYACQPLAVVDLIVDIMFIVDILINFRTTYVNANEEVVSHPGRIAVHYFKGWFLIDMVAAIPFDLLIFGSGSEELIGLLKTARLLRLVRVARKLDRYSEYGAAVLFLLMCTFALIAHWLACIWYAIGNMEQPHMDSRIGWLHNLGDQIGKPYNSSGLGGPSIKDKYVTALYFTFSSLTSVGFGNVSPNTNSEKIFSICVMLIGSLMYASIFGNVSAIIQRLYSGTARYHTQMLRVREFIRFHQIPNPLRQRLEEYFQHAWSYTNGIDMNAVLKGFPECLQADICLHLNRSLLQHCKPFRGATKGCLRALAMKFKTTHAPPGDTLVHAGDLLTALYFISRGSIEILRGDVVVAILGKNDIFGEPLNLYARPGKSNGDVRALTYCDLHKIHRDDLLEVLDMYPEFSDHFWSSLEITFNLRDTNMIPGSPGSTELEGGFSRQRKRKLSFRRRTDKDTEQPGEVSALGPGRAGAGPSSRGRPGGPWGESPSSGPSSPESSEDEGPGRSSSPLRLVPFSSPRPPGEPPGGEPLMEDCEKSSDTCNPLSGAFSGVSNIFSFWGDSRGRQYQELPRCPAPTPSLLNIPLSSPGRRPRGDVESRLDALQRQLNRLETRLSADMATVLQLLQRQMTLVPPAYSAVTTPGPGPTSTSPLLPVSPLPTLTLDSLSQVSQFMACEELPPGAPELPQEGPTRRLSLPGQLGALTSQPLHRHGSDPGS

## CC(C)(C)NC[C@H](O)c1cccc(C(F)(F)F)n1 [Compound 03-3]
  IC50: > 30 µM

## CC(C)(C)NC[C@H](O)c1cccc(C#N)n1 [Compound 03-5, (S)-6-(2-(tert-butylamino)-1-hydroxyethyl)picolinonitrile]
Manual patch clamp, HEK 293 cells, read-out: hERG IC50
  IC50: > 30 µM
